Several values for one entry are separate records, joined by “and”; a condition that tells them apart may be missing. Equal values may be shown once.

In the experiment the target is T1, MMP-1 (Homo sapiens, UniProt P03956).
T1 construct: made in house; host or cells: MMP-1-transfected HT-1080 cells (spent media)
T1 sequence (P03956 100-469): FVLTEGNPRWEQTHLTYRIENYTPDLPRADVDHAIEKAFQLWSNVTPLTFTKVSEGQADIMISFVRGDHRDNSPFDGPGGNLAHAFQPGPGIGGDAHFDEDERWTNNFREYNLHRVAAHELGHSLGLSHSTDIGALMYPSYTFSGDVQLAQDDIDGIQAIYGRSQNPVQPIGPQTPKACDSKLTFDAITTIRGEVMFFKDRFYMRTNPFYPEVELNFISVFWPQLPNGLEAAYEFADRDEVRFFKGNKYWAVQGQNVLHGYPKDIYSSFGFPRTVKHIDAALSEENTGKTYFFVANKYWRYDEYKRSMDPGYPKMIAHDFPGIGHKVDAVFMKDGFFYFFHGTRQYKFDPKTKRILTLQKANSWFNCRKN
Kind of experiment: In vitro MMP inhibition, Ki determination (fluorogenic substrate II). The class given is biochemical. The conditions noted are these: value outside parentheses; read-out: MMP-1 Ki.
Take `CCC=C1CCN(S(=O)(=O)C2(C(=O)NO)CCOCC2)CC1` [Example 374]: the inhibition constant Ki came to 0.303 µM.

On to `CCCCc1cnc(N2CCN(S(=O)(=O)C3(C(=O)NO)CCN(CCOC)CC3)CC2)nc1` [Example 334], for which the Ki is > 10 µM.

As to `O=C(NO)C1(S(=O)(=O)N2CCC(c3ccc(OC(F)(F)C(F)F)cc3)CC2)CCOCC1` [Example 337], the Ki is 3.29 µM.

For the molecule `O=C(NO)C1(S(=O)(=O)N2CCN(c3ncc(-c4cccc(-c5ccccc5)c4)s3)CC2)CCOCC1` [Example 365], the Ki is > 10 µM.

Turning to `O=C(NO)C1(S(=O)(=O)N2CCC(COCC(F)(F)C(F)(F)C(F)(F)F)CC2)CCOCC1` [Example 377], the Ki is > 10 µM.

With `O=C(NO)C1(S(=O)(=O)N2CCN(c3ccc(OCCCC(F)(F)F)cc3)CC2)CC(O)C1` (stereo not drawn) [Example 342], the Ki was > 10 µM.

For `CCN1CCC(C(=O)NO)(S(=O)(=O)N2CCN(c3ccc(-c4ccccc4)c(F)c3)CC2)CC1` [Example 341], the Ki was > 10 µM.

Take `O=C(NO)C1(S(=O)(=O)N2CCC(c3ccc(OCC(F)(F)C(F)F)cc3)CC2)CCN(C2CC2)CC1` [Example 350]: the Ki is > 10 µM.

Consider `CCCCOc1ccc(N2CCN(S(=O)(=O)C3(C(=O)NO)CCN(CCOC)CC3)CC2)nc1` [Example 325], for which the Ki was 7.51 µM.

On to `O=C(NO)C1(S(=O)(=O)N2CCN(c3ccc(CCCC(F)(F)F)cc3F)CC2)CCOCC1` [Example 386], for which the Ki was > 10 µM.

Turning to `COC(=O)c1ccc(N2CCN(S(=O)(=O)C3(C(=O)NO)CCOCC3)CC2)cc1` [Example 324], the Ki was determined as 1.86 µM.

For `CCCCc1ccc(C2CCN(S(=O)(=O)C3(C(=O)NO)CCN(CC)CC3)CC2)nc1` [Example 396], the Ki was > 10 µM.

`CC(C)c1ccc(-c2cnc(N3CCN(S(=O)(=O)C4(C(=O)NO)CCOCC4)CC3)s2)cc1` [Example 366]: the Ki worked out at 2.16 µM.

Take `O=C(NO)C1(S(=O)(=O)N2CCN(c3ncc(-c4ccc(F)cc4F)s3)CC2)CCOCC1` [Example 359]: the Ki is 2.6 µM.

For the molecule `O=C(NO)C1(S(=O)(=O)N2CCC(c3ccc(-c4ccc(C(F)(F)F)cc4)cn3)CC2)CCOCC1` [Example 395], the Ki is > 10 µM.

Take `O=C(NO)C1(S(=O)(=O)N2CCC(N3CCN(c4ccc(Cl)cc4)CC3)CC2)CCOCC1` [Example 315]: the Ki was > 10 µM.

For the molecule `CCc1ccc(-c2cnc(N3CCN(S(=O)(=O)C4(C(=O)NO)CCOCC4)CC3)s2)cc1` [Example 381], the Ki came out at 3.25 µM.

Regarding `O=C(NO)C1(S(=O)(=O)N2CCN(c3ccc(-c4ccc(OC(F)(F)F)cc4)cc3)CC2)CCOCC1` [Example 327], the Ki amounted to 7.3 µM.

As to `O=C(NO)C1(S(=O)(=O)N2CCC(c3ccc(CCCC(F)(F)F)cn3)CC2)CCOCC1` [Example 338], the Ki turned out to be 9.86 µM.

As for `O=C(NO)C1(S(=O)(=O)N2CCC(c3ccc(-c4cccnc4)cn3)CC2)CCOCC1` [Example 390], the Ki stood at 7.88 µM.

As for `COCCN1CCC(C(=O)NO)(S(=O)(=O)N2CCN(c3ncccn3)CC2)CC1` [Example 332], the Ki is 5.11 µM.

On to `O=C(NO)C1(S(=O)(=O)N2CCN(c3ccc(OCC4CC4)c(F)c3)CC2)CCOCC1` [Example 333], for which the Ki was > 10 µM.

For the molecule `O=C(NO)C1(S(=O)(=O)N2CCC(c3ccc(OCC(F)(F)C(F)(F)F)cc3)CC2)CCOCC1` [Example 330], the Ki is 5.36 µM.

Consider `Cc1ccc(-c2cnc(N3CCN(S(=O)(=O)C4(C(=O)NO)CCOCC4)CC3)s2)cc1` [Example 344], for which the Ki was determined as 3.52 µM.

For the molecule `O=C(NO)C1(S(=O)(=O)N2CCN(c3ncc(-c4ccccn4)s3)CC2)CCOCC1` [Example 387], the Ki was > 10 µM.

With `O=C(NO)C1(S(=O)(=O)N2CCN(c3ccc(CCCC(F)(F)F)cn3)CC2)CCOCC1` [Example 358], the Ki was > 10 µM.

As for `O=C(NO)C1(S(=O)(=O)N2CCC(COCc3ccccc3)CC2)CCOCC1` [Example 373], the Ki was > 10 µM.

With `O=C(NO)C1(S(=O)(=O)N2CCN(c3cnn(-c4ccccc4)c(=O)c3)CC2)CCOCC1` [Example 322], the Ki is > 10 µM.

`Cc1ccccc1-c1cnc(N2CCN(S(=O)(=O)C3(C(=O)NO)CCOCC3)CC2)s1` [Example 348]: the Ki is > 10 µM.

For `NC(=O)c1ccccc1-c1cnc(N2CCN(S(=O)(=O)C3(C(=O)NO)CCOCC3)CC2)s1` [Example 383], the Ki is > 10 µM.

As to `O=C(NO)C1(S(=O)(=O)N2CCN(c3cccc(OCCCC(F)(F)F)c3)CC2)CCOCC1` [Example 355], the Ki was > 10 µM.

Turning to `O=C(NO)C1(S(=O)(=O)N2CCC(c3ccc(-c4ccccc4)cn3)CC2)CCOCC1` [Example 392], the Ki is 3.43 µM.

As for `N#Cc1cccc(-c2cnc(N3CCN(S(=O)(=O)C4(C(=O)NO)CCOCC4)CC3)s2)c1` [Example 384], the Ki is 0.266 µM.

Consider `O=C(NO)C1(S(=O)(=O)N2CCN(c3ccc(-c4ccc(F)cc4F)cn3)CC2)CCOCC1` [Example 316], for which the Ki was determined as 5.52 µM.

For `O=C(NO)C1(S(=O)(=O)N2CCC(c3ccc(CCCC(F)(F)F)cc3)CC2)CCN(C2CC2)CC1` [Example 351], the Ki is > 10 µM.

Consider `O=C(NO)C1(S(=O)(=O)N2CCN(c3ncc(-c4ccc(-c5ccccc5)cc4)s3)CC2)CCOCC1` [Example 360], for which the Ki was > 2.5 µM.

As for `O=C(NO)C1(S(=O)(=O)N2CCN(c3cnn(CCCC(F)(F)F)c(=O)c3)CC2)CCOCC1` [Example 321], the Ki is > 10 µM.

With `O=C(NO)C1(S(=O)(=O)N2CCN(c3ccc(-c4ccccc4)cn3)CC2)CCOCC1` [Example 372], the Ki was 0.611 µM and 0.795 µM.

In the case of `O=C(NO)C1(S(=O)(=O)N2CCN(c3ncc(-c4ccc(Cl)c(Cl)c4)s3)CC2)CCOCC1` [Example 369], the Ki is > 10 µM.

On to `CCCCc1ccc(C2CCN(S(=O)(=O)C3(C(=O)NO)CCNCC3)CC2)nc1` [Example 388], for which the Ki is > 10 µM.

For `O=C(NO)C1(S(=O)(=O)N2CCN(c3ccc(-c4ccc(Cl)c(Cl)c4)cc3)CC2)CCOCC1` [Example 328], the Ki turned out to be 3.72 µM.

For `CC(C)(C)c1ccc(-c2cnc(N3CCN(S(=O)(=O)C4(C(=O)NO)CCOCC4)CC3)s2)cc1` [Example 347], the Ki stood at 2.77 µM.

As to `CCCCc1ccc(C2CCN(S(=O)(=O)C3(C(=O)NO)CCOCC3)CC2)nc1` [Example 323], the Ki was 6.21 µM.

With `O=C(NO)C1(S(=O)(=O)N2CCC(c3ccc(OC(F)(F)C(F)(F)F)cc3)CC2)CCOCC1` [Example 349], the Ki is > 10 µM.

`O=C(NO)C1(S(=O)(=O)N2CCC(COCC(F)(F)C(F)F)CC2)CCOCC1` [Example 375]: the Ki is > 10 µM.

Take `Cc1cccc(-c2cnc(N3CCN(S(=O)(=O)C4(C(=O)NO)CCOCC4)CC3)s2)c1` [Example 370]: the Ki was determined as 5.74 µM.

On to `COc1ccccc1-c1ccc(N2CCN(S(=O)(=O)C3(C(=O)NO)CCOCC3)CC2)nc1` [Example 318], for which the Ki is > 10 µM.

In the case of `O=C(NO)C1(S(=O)(=O)N2CCN(c3ncc(-c4ccc(O)cc4)s3)CC2)CCOCC1` [Example 368], the Ki turned out to be 3.35 µM.

As for `O=C(NO)C1(S(=O)(=O)N2CCC(COCC(F)(F)C(F)(F)C(F)(F)C(F)F)CC2)CCOCC1` [Example 378], the Ki is > 10 µM.

Take `O=C(NO)C1(S(=O)(=O)N2CCC(c3ccc(OCC(F)(F)F)cc3)CC2)CCOCC1` [Example 357]: the Ki amounted to 3.78 µM.

As to `O=C(NO)C1(S(=O)(=O)N2CCN(c3ccc(-c4cccc(OC(F)(F)F)c4)cn3)CC2)CCOCC1` [Example 319], the Ki is > 10 µM.

The values are drawn from patent publication US20050209278A1, “Piperidinyl- and piperazinyl-sulfonylmethyl hydroxamic acids and their use as protease inhibitors” (priority 2002, published 2005).
